Measurements published in US20240251792A1, “WEED CONTROL METHOD” (SYNGENTA CROP PROTECTION AG, priority 2021, published 2024).
Like-named read-outs stand apart in the source and are kept apart here.

Legend:
Format in all cases: in vivo
[1] = system: STEME; test: Biological efficacy, pre-emergence glasshouse test (Table 2); conditions: 1000 g/ha, after 12 days
Protocol: (§1) Seeds of a variety of test species were shown in unsterilised compost in small pots. After cultivation for one day (pre-emergence) or seven days (post-emergence) in controlled conditions in the glasshouse (at 24/16° C., day/night; 14 hours light; 65% humidity) the plants were sprayed with 1 mg of the active ingredient, formulated in 466 μl of a acetone/water/Tween 20 (49.75:49.75:0.5) solution, which is equivalent to 1000 g/ha. Once the foliage was dry, the pots were kept in the glasshouse (at 24/16° C., day/night; 14 hours light; 65% humidity), and were watered twice daily. After 12 days the test was evaluated and scored (100=total damage to plant, 0=no damage to plant).

[2] = system: AMARE; test: as above; conditions: 1000 g/ha, after 12 days
Protocol: as §1

[3] = system: LOLPE; test: as above; conditions: 1000 g/ha, after 12 days
Protocol: as §1

[4] = system: DIGSA; test: as above; conditions: 1000 g/ha, after 12 days
Protocol: as §1

[5] = system: STEME; test: Biological efficacy, post-emergence glasshouse test (Table 2); conditions: 1000 g/ha, after 12 days
Protocol: as §1

[6] = system: AMARE; test: as above; conditions: 1000 g/ha, after 12 days
Protocol: as §1

[7] = system: LOLPE; test: as above; conditions: 1000 g/ha, after 12 days
Protocol: as §1

[8] = system: DIGSA; test: as above; conditions: 1000 g/ha, after 12 days
Protocol: as §1

[9] = system: STEME; test: Pre-emergence biological efficacy (Table 3); conditions: 312 h, after 13 days, read-out: evaluation (100=total damage to plant; 0=no damage to plant)
Method in brief: (§2)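 Seeds sown in standard soil and sprayed one day later with compound formulated in acetone/AMA solvent-emulsifier, diluted in 0.2% Genapol X080 to the final dose. Plants grown in glasshouse at 24/18° C, 15 h light, 50% humidity. Damage scored after 13 days (0=none, 100=total).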

[10] = system: ZEAMX; test: Pre-emergence biological efficacy (Table 3); conditions: 312 h, 1000 g/ha, after 13 days, read-out: evaluation (100=total damage to plant; 0=no damage to plant)
Method in brief: as §2

[11] = system: ABUTH; test: Pre-emergence biological efficacy (Table 3); conditions: Abutilon theophrasti, 312 h, after 13 days, read-out: evaluation (100=total damage to plant; 0=no damage to plant)
Method in brief: as §2

[12] = system: IPOHE; test: Pre-emergence biological efficacy (Table 3); conditions: Ipomoea hederacea, 312 h, 1000 g/ha, after 13 days, read-out: evaluation (100=total damage to plant; 0=no damage to plant)
Method in brief: as §2

[13] = system: AMARE; test: Pre-emergence biological efficacy (Table 3); conditions: Amaranthus retroflexus, 312 h, 1000 g/ha, after 13 days, read-out: evaluation (100=total damage to plant; 0=no damage to plant)
Method in brief: as §2

[14] = system: ECHCG; test: Pre-emergence biological efficacy (Table 3); conditions: Echinochloa crus-galli, 312 h, 1000 g/ha, after 13 days, read-out: evaluation (100=total damage to plant; 0=no damage to plant)
Method in brief: as §2

[15] = system: weeds and/or crops; test: Post-emergence biological efficacy (Table 4); conditions: 312 h, 1000 g/ha, evaluated after 13 days
Method in brief: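 Weeds and crops were grown 14 days in a glasshouse, then sprayed post-emergence with compound formulated in acetone/F50 and diluted in 0.2% Genapol X080 to the final dose. Damage was scored after 13 days on a 0–100 scale, where 100 is total damage.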

[16] = STEME, read-out: damage to plant STEME (100=total damage; 0=no damage)
[17] = ZEAMX, read-out: damage to plant ZEAMX (100=total damage; 0=no damage)
[18] = Amaranthus retroflexus, AMARE, read-out: damage to plant AMARE (100=total damage; 0=no damage)
[19] = Echinochloa crus-galli, ECHCG, read-out: damage to plant ECHCG (100=total damage; 0=no damage)
[20] = Ipomoea hederacea, IPOHE, read-out: damage to plant IPOHE (100=total damage; 0=no damage)

For `CC(C)(C)c1ccc(C(F)(F)C(=O)O)cc1` [Compound 1-1], the “score (100=total damage to plant, 0=no damage to plant)” value [1] was 20, the “score (100=total damage to plant, 0=no damage to plant)” value [2] was 0 and the “score (100=total damage to plant, 0=no damage to plant)” value [3] was 0. The “score (100=total damage to plant, 0=no damage to plant)” value [4] was 0, the “score (100=total damage to plant, 0=no damage to plant)” value [5] was 0 and the “score (100=total damage to plant, 0=no damage to plant)” value [6] was 40. For the same compound, the “score (100=total damage to plant, 0=no damage to plant)” value [7] was 0 and the “score (100=total damage to plant, 0=no damage to plant)” value [8] was 0.
In the case of `COc1ccc(C(F)(F)C(=O)O)cc1` [Compound 1-2], the “score (100=total damage to plant, 0=no damage to plant)” value [1] is reported as 0, the “score (100=total damage to plant, 0=no damage to plant)” value [2] is reported as 0 and the “score (100=total damage to plant, 0=no damage to plant)” value [3] is reported as 0. For the same compound, the “score (100=total damage to plant, 0=no damage to plant)” value [4] was 0, the “score (100=total damage to plant, 0=no damage to plant)” value [5] was 50 and the “score (100=total damage to plant, 0=no damage to plant)” value [6] was 40. The “score (100=total damage to plant, 0=no damage to plant)” value [7] was 0 and the “score (100=total damage to plant, 0=no damage to plant)” value [8] was 0.
`COc1cccc(C(F)(F)C(=O)O)c1` [Compound 1-6] was tested, and the “score (100=total damage to plant, 0=no damage to plant)” value [1] was 0, the “score (100=total damage to plant, 0=no damage to plant)” value [3] was 0 and the “score (100=total damage to plant, 0=no damage to plant)” value [4] was 0. For the same compound, the “score (100=total damage to plant, 0=no damage to plant)” value [5] was 20, the “score (100=total damage to plant, 0=no damage to plant)” value [6] was 80 and the “score (100=total damage to plant, 0=no damage to plant)” value [7] was 0. The “score (100=total damage to plant, 0=no damage to plant)” value [8] was 0.
`O=C(O)C(F)(F)c1cccc2nccnc12` [Compound 1-409, 2,2-Difluoro-2-(quinoxalin-5-yl)acetic acid] was tested, and the pest or weed control at 1000 g/ha [9] was 30%, the plant injury at 1000 g/ha [10] was 0% and the pest or weed control at 1000 g/ha [11] was 70%. For the same compound, the pest or weed control at 1000 g/ha [12] was 70%, the pest or weed control at 1000 g/ha [13] was 50% and the pest or weed control at 1000 g/ha [14] was 20%. For the same compound, the pest or weed control at 1000 g/ha [15, 16] was 40%, the pest or weed control at 1000 g/ha [15, 17] was 10% and the pest or weed control at 1000 g/ha [15, 18] was 70%. The pest or weed control at 1000 g/ha [15, 19] was 10% and the pest or weed control at 1000 g/ha [15, 20] was 80%.
Work on `O=C(O)C(F)(F)c1cccc2cccc(Cl)c12` [Compound 1-416, 2-(8-chloro-1-naphthyl)-2,2-difluoro-acetic acid] yielded a pest or weed control at 1000 g/ha [9] of 80%, a plant injury at 1000 g/ha [10] of 10% and a pest or weed control at 1000 g/ha [11] of 80%. It also gave a pest or weed control at 1000 g/ha [12] of 90%, a pest or weed control at 1000 g/ha [13] of 90% and a pest or weed control at 1000 g/ha [14] of 40%. For the same compound, the pest or weed control at 1000 g/ha [15, 16] was 90%, the pest or weed control at 1000 g/ha [15, 17] was 20% and the pest or weed control at 1000 g/ha [15, 18] was 80%. It also gave a pest or weed control at 1000 g/ha [15, 19] of 10% and a pest or weed control at 1000 g/ha [15, 20] of 80%.
For `CCOC(=O)C(F)(F)c1cccc2ccccc12` [Compound 3-397, Ethyl 2,2-difluoro-2-(1-naphthyl)acetate], the “score (100=total damage to plant, 0=no damage to plant)” value [2] was 0, the “score (100=total damage to plant, 0=no damage to plant)” value [3] was 0 and the “score (100=total damage to plant, 0=no damage to plant)” value [4] was 0. The “score (100=total damage to plant, 0=no damage to plant)” value [5] was 70, the “score (100=total damage to plant, 0=no damage to plant)” value [6] was 40 and the “score (100=total damage to plant, 0=no damage to plant)” value [7] was 0. The “score (100=total damage to plant, 0=no damage to plant)” value [8] was 0, the pest or weed control at 1000 g/ha [9] was 40% and the plant injury at 1000 g/ha [10] was 20%. It also gave a pest or weed control at 1000 g/ha [11] of 50%, a pest or weed control at 1000 g/ha [12] of 0% and a pest or weed control at 1000 g/ha [13] of 10%. The pest or weed control at 1000 g/ha [14] was 0%, the pest or weed control at 1000 g/ha [15, 16] was 100% and the pest or weed control at 1000 g/ha [15, 17] was 0%. The pest or weed control at 1000 g/ha ([15]; Abutilon theophrasti, ABUTH, read-out: damage to plant ABUTH (100=total damage; 0=no damage)) was 90%, the pest or weed control at 1000 g/ha [15, 18] was 10% and the pest or weed control at 1000 g/ha [15, 19] was 0%. For the same compound, the pest or weed control at 1000 g/ha [15, 20] was 60%.
